Values quoted from earlier work as cited in patent EP3272348A1, “PHARMACEUTICAL COMPOSITION COMPRISING IDELALISIB” (LEK Pharmaceuticals d.d., priority 2016, dated 2018).
Where two headings read alike, the source gives them in different places.

Assays:
[1] = not given; remark: listed apart in the source

- solubility (pH 1.2): soluble
- solubility (pH 7): not soluble
- permeability [1]: high permeability
SMILES: CC[C@H](Nc1ncnc2[nH]cnc12)c1nc2cccc(F)c2c(=O)n1-c1ccccc1 [Crystalline idelalisib, (S)-2-(I-(9H-purin-6-ylamino)propyl)-5-fluoro-3-phenyl-quinazolin-4(3H)-one]
